Laboratory results published in US20150057351A1, “METHOD FOR TREATING NEUROPATHIC PAIN” (SUCAMPO AG, priority 2013, published 2015).
Marks after values point to notes of the source that are not given here.

What was measured:
[1] = tested on: patients who have neuropathic pain around the low back and the lower limbs; assay: Pain intensity by Visual Analogue Scale (VAS), responder rate in patients with neuropathic pain; type: in vivo, human
Description: (§1) Compound A and corresponding placebo were injected to the patients who have neuropathic pain around the low back and the lower limbs twice daily for 14 days. For the first 3 days, 30 μg of Compound A was administered twice daily (60 μg/day), and then 60 μg of Compound A was administer twice daily (120 μg/day) for the next 11 days.
The intensity of pain was assessed using Visual Analogue Scale (VAS). A VAS is usually a horizontal line, 100 mm in length, anchored by no pain and awful pain at each end. The patient marks on the line the point that they feel represents their perception of their current state. The VAS score is determined by measuring in millimeters from the left hand end of the line to the point that the patient marks. VAS score was measured before (Pre-treatment) and 15-days (Day 15) after start treatment by Compound A or placebo.

[2] = tested on: neuropathic pain model rats; assay: Pain threshold in neuropathic pain model rats (L4/L5 nerve root ligation, Dynamic Plantar Aesthesiometer); type: in vivo, rat; conditions: for Pain threshold, During treatment 2 day: 2-day after start of administration; for Pain threshold, During treatment 4-day: 4-day after start of administration; for Pain threshold, During treatment 7-day: 7-day after start of administration; for Pain threshold, 10-day: 10-day after start of administration; for Pain threshold, Pre-treatment: baseline, before start of administration
[3] = tested on: patients who have neuropathic pain around the low back and the lower limbs; assay: Pain-associated QOL by JOABPEQ (social life function) in patients with neuropathic pain; type: in vivo, human
Description: as §1
The patient's pain-associated quality of life (QOL) was assessed using Japan Orthopedic Association Back Pain Evaluation questionnaires (JOABPEQ). Patients self-evaluated their QOL before (Pre-Treatment), 8 days (Day 8) and 15 days (Day 15) after start treatment by Compound A or placebo.

[4] = 30 μg/kg intravenous twice a day for 7 days
[5] = 1 mg/kg oral twice a day for 7 days

Question: How did the Rate of responder ([1]; injected twice daily for 14 days: 60 μg/day for 3 days, then 120 μg/day for 11 days, VAS Day 15 vs pre-treatment) turn out when `CCCCC(F)(F)C(=O)CC[C@H]1CCC(=O)[C@@H]1CCCCCCC(=O)O` [Compound A, (−)-7-[(1R,2R)-2-(4,4-difluoro-3-oxooctyl)-5-oxocyclopentyl]heptanoic acid] was run?
Answer: The Rate of responder was 94.4% (N = 18) *.

Question: And the “Responder rate compared with placebo treated group” value ([1]; injected twice daily for 14 days, VAS Day 15)?
Answer: Its value is “significantly higher”.

Question: And the “Pain threshold, During treatment 2 day” value [2, 4]?
Answer: Its value is 6.8 ± 0.3 g.

Question: What about the “Pain threshold, During treatment 4-day” value [2, 4] of the same compound?
Answer: The value was 7.6 ± 0.3 g.

Question: What about the “Pain threshold, During treatment 7-day” value [2, 4] of the same compound?
Answer: Its value is 8.1 ± 0.3 g.

Question: And the “Pain threshold, 10-day” value [2, 4]?
Answer: Its value is 8.4 g.

Question: And the “Pain threshold, Pre-treatment” value ([2]; 30 μg/kg intravenous twice a day, 4 days after surgery)?
Answer: Its value is 6.1 ± 0.2 g.

Question: What about the “Pain threshold of the model paw compared with vehicle-control group” value ([2]; intravenous, 30 μg/kg twice a day) of the same compound?
Answer: The value was “statistically significantly increased”.

Question: And the “Change in score of social life function from pre-treatment, Day 15” value ([3]; injected twice daily for 14 days: 60 μg/day for 3 days, then 120 μg/day for 11 days, Day 15, JOABPEQ)?
Answer: Its value is 3.0 ± 2.8 (N = 20).

Question: What about the “Social life function (JOABPEQ factor)” value ([3]; injected twice daily for 14 days, vs placebo) of the same compound?
Answer: Its value is “significantly improved”.

Question: What about the “Change in score of social life function from pre-treatment, Day 8” value ([3]; injected twice daily: 60 μg/day for 3 days, then 120 μg/day, Day 8, JOABPEQ) of the same compound?
Answer: Its value is 2.7 ± 2.8 (N = 20) ^a.

Question: With `CCCCC(F)(F)C(=O)CC[C@H]1CCC(=O)[C@@H]1CCCC/C=C/C(=O)O` [Compound B, (E)-7-[(1R,2R)-2-(4,4-difluoro-3-oxooctyl)-5-oxocyclopentyl]hept-2-enoic acid] as the compound, how does the “Pain threshold, During treatment 2 day” value [2, 5] read?
Answer: Its value is 7.7 ± 0.3 g.

Question: What about the “Pain threshold, During treatment 4-day” value [2, 5] of the same compound?
Answer: Its value is 8.2 g.

Question: What about the “Pain threshold, During treatment 7-day” value [2, 5] of the same compound?
Answer: Its value is 8.6 ± 0.2 g.

Question: What about the “Pain threshold, 10-day” value [2, 5] of the same compound?
Answer: Its value is 8.2 ± 0.2 g.

Question: What about the “Pain threshold, Pre-treatment” value ([2]; 1 mg/kg oral twice a day) of the same compound?
Answer: Its value is 6.8 ± 0.2 g.

Question: What about the “Pain threshold of the model paw compared with vehicle-control group” value ([2]; oral, 1 mg/kg twice a day for 7 days) of the same compound?
Answer: Its value is “statistically significantly increased”.
